Where a name gives a salt, the structure may show the parent alone. Read-outs that look alike come from different tables or passages of the source.

Experiment [1] has as its target T1, human serotonin transporters (Homo sapiens, UniProt P31645).
T1 construct: expressed in transfected cells; host or cells: HEK-293 (HEK-hSERT), membrane homogenates
Description: Serotonin Transporter Binding Assay. Particulars: HEK-hSERT cell membranes, 1 nM [3H]-citalopram, Cheng and Prusoff. In short, it runs like this:
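Displacement of 1 nM [^3H]-citalopram (1 hr, 25° C, Tris pH 7.4 with NaCl/KCl) from membranes of HEK-293 cells stably expressing human SERT, with bound ligand read after filtration. 10 μM fluoxetine defined non-specific binding. Ki values were derived via Cheng–Prusoff from IC50 displacement-curve midpoints.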

For experiment [2], the target named is T2, recombinant human dopamine D2L receptors (Homo sapiens, UniProt P14416).
T2 construct: expressed in transfected cells; host or cells: HEK-293 (HEK-D2L), membrane homogenates
T2 sequence (P14416 whole entry): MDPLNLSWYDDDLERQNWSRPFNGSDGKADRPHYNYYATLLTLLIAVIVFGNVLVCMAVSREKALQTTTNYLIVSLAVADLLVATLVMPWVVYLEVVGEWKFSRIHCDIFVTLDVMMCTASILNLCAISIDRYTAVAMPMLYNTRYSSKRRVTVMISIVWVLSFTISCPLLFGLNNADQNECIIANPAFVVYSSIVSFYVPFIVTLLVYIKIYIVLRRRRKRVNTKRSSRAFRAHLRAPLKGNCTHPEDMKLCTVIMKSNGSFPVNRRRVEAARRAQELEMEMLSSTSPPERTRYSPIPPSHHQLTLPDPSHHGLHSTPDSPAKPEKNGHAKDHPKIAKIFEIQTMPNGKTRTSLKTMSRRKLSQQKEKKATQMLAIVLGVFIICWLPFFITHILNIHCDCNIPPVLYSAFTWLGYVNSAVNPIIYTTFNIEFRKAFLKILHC
Description: Dopamine Binding Assay. The settings on record: HEK-D2L cell membranes, 150 pM [3H]-spiperone, Cheng and Prusoff. Summed up:
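Competition binding on HEK-293 membranes stably expressing human D2L (~5 μg protein) with 150 pM [3H]-spiperone, 1.5 h at 22 °C in 50 mM Tris pH 7.4, 1 mM EDTA, 6 mM MgCl2. Filtration read-out; non-specific binding defined with 2 μM (+)butaclamol, Ki by Cheng-Prusoff.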

T1 sequence (P31645 whole entry): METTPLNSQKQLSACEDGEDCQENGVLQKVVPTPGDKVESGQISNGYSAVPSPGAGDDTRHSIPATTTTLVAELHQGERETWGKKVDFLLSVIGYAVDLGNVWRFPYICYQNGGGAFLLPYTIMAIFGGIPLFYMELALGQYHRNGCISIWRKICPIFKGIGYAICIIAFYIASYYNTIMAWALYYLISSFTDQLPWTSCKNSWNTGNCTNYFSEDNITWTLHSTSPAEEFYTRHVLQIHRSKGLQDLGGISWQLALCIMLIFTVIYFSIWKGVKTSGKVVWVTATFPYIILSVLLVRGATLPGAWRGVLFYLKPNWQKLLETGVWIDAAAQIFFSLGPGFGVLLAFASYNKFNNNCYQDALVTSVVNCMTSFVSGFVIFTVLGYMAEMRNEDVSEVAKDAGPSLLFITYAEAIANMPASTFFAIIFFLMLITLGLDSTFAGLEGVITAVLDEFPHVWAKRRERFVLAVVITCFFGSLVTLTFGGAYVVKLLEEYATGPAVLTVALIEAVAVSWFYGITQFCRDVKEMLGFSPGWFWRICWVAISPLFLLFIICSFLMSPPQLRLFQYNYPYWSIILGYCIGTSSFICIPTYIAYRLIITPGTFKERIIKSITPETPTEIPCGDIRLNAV

As a reminder, the Ki is a dissociation constant, usually derived from enzyme kinetics or from competition with a known ligand. In the case of `CCN(CCCNC(=O)OC(C)C)C[C@@H]1C[C@H]1c1c[nH]c2ccc(C#N)cc12` (relative stereo) [Example 100, trans-2-[5-Cyanoindol-3-yl]-1-[N,N-ethyl-2-amino(isopropylcarbamoyl)propylaniinomethyl]-cyclopropane], the inhibitory constant (Ki) in experiment [1] (read-out: SERT Ki) was 10 to 100 nM; in experiment [2], above 1000 nM.
The corresponding values for `COc1ccc(CNCC2CC2c2c[nH]c3ccc(F)cc23)cc1` (stereo not drawn) [Example 52, trans-2-[5-Fluoroindol-3-yl]-1-[N-(4-methoxybenzyl)aminomethyl]-cyclopropane] are 10 to 100 nM and 100 to 1000 nM.
The corresponding values for `Fc1ccc2[nH]cc([C@@H]3C[C@H]3CNCc3ccccc3)c2c1` (relative stereo) [Example 49, trans-1-(N-Benzlyaminomethyl)-2-[5-fluoroindol-3-yl]-cyclopropane] are 10 to 100 nM and 100 to 1000 nM.
The corresponding values for `N#Cc1ccc2[nH]cc(C3CC3CNCCCc3cccnc3)c2c1` (stereo not drawn) [Example 22, trans-2-[5-Cyanoindol-3-yl]-1-[N-3-(3-pyridyl)propylaminomethyl]-cyclopropane] are 1 to 10 nM and 100 to 1000 nM.
Turning to `CN(C)C[C@@H]1C[C@H]1c1c[nH]c2ccc(F)cc12` [Example 128a, (1R,2R)-trans-1-(N,N-dimethylaminomethyl)-2-[5-fluoroindol-3-yl]-cyclopropane maleate salt], the Ki was 10 to 100 nM in experiment [1] (read-out: SERT Ki) and above 1000 nM in experiment [2].
For `CNC[C@H]1C[C@@H]1c1c[nH]c2cc(C#N)ccc12` (racemic) [Example 158, 3-(2-Methylaminomethyl-cyclopropyl)-1H-indole-6-carbonitrile], the inhibition constant Ki in experiment [1] (SERT Ki (nM)) was 10 to 100 nM; in experiment [2] it was above 1000 nM.
The corresponding values for `CCN(CC)C[C@H]1C[C@@H]1c1c[nH]c2cc(C#N)ccc12` (racemic) [Example 160, 3-(2-Diethylaminomethyl-cyclopropyl)-1H-indole-6-carbonitrile] are 10 to 100 nM and above 1000 nM.
For the molecule `CCCOC(=O)NCCN(CC)C[C@@H]1C[C@H]1c1c[nH]c2ccc(C#N)cc12` (relative stereo) [Example 95, trans-2-[5-Cyanoindol-3-yl]-1-[N,N-ethyl-2-amino(propylcarbamoyl)ethylaminomethyl]-cyclopropane], the inhibitory constant (Ki) is 1 to 10 nM in experiment [1] (read-out: SERT Ki) and above 1000 nM in experiment [2].
The corresponding values for `COc1cccc(CNCC2CC2c2c[nH]c3ccc(F)cc23)c1` (stereo not drawn) [Example 51, trans-2-[5-Fluoroindol-3-yl]-1-[N-(3-methoxybenzyl)aminomethyl]-cyclopropane] are 1 to 10 nM and 100 to 1000 nM.
As for `CCN(CC)C(C)C1CC1c1c[nH]c2ccc(C#N)cc12` (racemic) [Example 123, trans-3-[2-(1-Diethylamino-ethyl)-cyclopropyl]-1H-indole-5-carbonitrile], the Ki in experiment [1] (SERT Ki (nM)) is 10 to 100 nM; in experiment [2] it was above 1000 nM.
In the case of `CC(C)CCNCC1CC1c1c[nH]c2ccc(F)cc12` (stereo not drawn) [Example 72, trans-2-[5-Fluoroindol-3-yl]-1-[N-3-methyl-butylaminomethyl]-cyclopropane], the inhibition constant (Ki) was in the range of 10 to 100 nM in experiment [1] (read-out: SERT Ki) and 100 to 1000 nM in experiment [2].
Consider `CCN(CCNC(=O)OC)C[C@@H]1C[C@H]1c1c[nH]c2ccc(C#N)cc12` (relative stereo) [Example 93, trans-2-[5-Cyanoindol-3-yl]-1-[N,N-ethyl-2-amino(methylcarbamoyl)ethylaminomethyl]-cyclopropane], for which the results for the inhibition constant Ki in experiment [1] (read-out: SERT Ki) and in experiment [2] were 1 to 10 nM and above 1000 nM, respectively.
The corresponding values for `CC1CCN(CC2CC2c2c[nH]c3ccc(C#N)cc23)CC1` (stereo not drawn) [Example 33, trans-2-[5-Cyanoindol-3-yl]-1-(4-methyl-piperidin-1-yl-methyl)-cyclopropane] are 10 to 100 nM and 100 to 1000 nM.
The corresponding values for `CCCN(CCC)CC1CC1c1c[nH]c2ccc(F)cc12` (stereo not drawn) [Example 77, trans-1-[N,N-Dipropylaminomethyl]-2-[5-fluoroindol-3-yl]-cyclopropane] are 10 to 100 nM and 100 to 1000 nM.
Take `CC(C1CC1c1c[nH]c2ccc(C#N)cc12)N(C)C` (racemic) [Example 121, trans-3-[2-(1-Dimethylamino-ethyl)-cyclopropyl]-1H-indole-5-carbonitrile]: the Ki in experiment [1] (SERT Ki (nM)) was below 1 nM; in experiment [2], above 1000 nM.
On to `CCN(CCCNC(=O)OC(C)C)C[C@@H]1C[C@H]1c1c[nH]c2ccc(F)cc12` (relative stereo) [Example 115, trans-1-[N,N-Ethyl-2-amino(isopropylcarbamoyl)propylaminomethyl]-2-[5-fluoroindol-3-yl]-cyclopropane], for which the Ki was in the range of 10 to 100 nM in experiment [1] (read-out: SERT Ki) and 100 to 1000 nM in experiment [2].
For `N#Cc1ccc2[nH]cc([C@@H]3C[C@H]3CNCc3ccccc3F)c2c1` (relative stereo) [Example 11, trans-2-[5-Cyanoindol-3-yl]-1-[N-(2-fluorobenzyl)aminomethyl]-cyclopropane], the Ki in experiment [1] (read-out: SERT Ki) was 1 to 10 nM; in experiment [2] it was 100 to 1000 nM.
The corresponding values for `CCNCC1CC1c1c[nH]c2ccc(C#N)cc12` (centres unmarked) [Example 135] are 1 to 10 nM and 10 to 100 nM.
The corresponding values for `CCCOC(=O)NCCCN(CC)C[C@@H]1C[C@H]1c1c[nH]c2ccc(C#N)cc12` (relative stereo) [Example 99, trans-2-[5-Cyanoindol-3-yl]-1-[N,N-ethyl-2-amino(propylcarbamoyl)propylaminomethyl]-cyclopropane] are 1 to 10 nM and 100 to 1000 nM.
Regarding `Fc1ccc2[nH]cc(C3CC3CN3CCCCC3)c2c1` (stereo not drawn) [Example 85, trans-2-[5-Fluoroindol-3-yl]-1-[piperidin-1-yl-methyl]-cyclopropane], the Ki in experiment [1] (SERT Ki (nM)) is 10 to 100 nM; in experiment [2], above 1000 nM.
Regarding `Fc1ccc2[nH]cc(C3CC3CNCCc3ccccc3F)c2c1` (stereo not drawn) [Example 59, trans-2-[5-Fluoroindol-3-yl]-1-[N-(2-fluorophenyl)ethylaminomethyl]-cyclopropane], the Ki in experiment [1] (read-out: SERT Ki) and in experiment [2] was 10 to 100 nM each time.
For the molecule `Fc1ccc2[nH]cc(C3CC3CNCCc3cccs3)c2c1` (stereo not drawn) [Example 67, trans-2-[5-Fluoroindol-3-yl]-1-[N-2-(2-thiopheneyl)ethylaminomethyl]-cyclopropane], the Ki in experiment [1] (read-out: SERT Ki) and in experiment [2] was 10 to 100 nM each time.
As for `CCCOC(=O)NCCCN(CC)C[C@@H]1C[C@H]1c1c[nH]c2ccc(F)cc12` (relative stereo) [Example 114, trans-1-[N,N-Ethyl-2-amino(propylcarbamoyl)propylaminomethyl]-2-[5-fluoroindol-3-yl]-cyclopropane], the inhibitory constant (Ki) in experiment [1] (read-out: SERT Ki) lay within 10 to 100 nM; in experiment [2], 100 to 1000 nM.
In the case of `CCNC(C)C1CC1c1c[nH]c2ccc(C#N)cc12` (racemic) [Example 126, trans-3-[2-(1-Ethylamino-ethyl)-cyclopropyl]-1H-indole-5-carbonitrile], the values for the Ki in experiment [1] (read-out: SERT Ki) and in experiment [2] were 10 to 100 nM and 100 to 1000 nM, respectively.
The corresponding values for `Fc1ccc2[nH]cc(C3CC3CNCCCc3ccccc3)c2c1` (stereo not drawn) [Example 62, trans-2-[5-Fluoroindol-3-yl]-1-[N-3-phenylpropylaminomethyl]-cyclopropane] are 1 to 10 nM and 10 to 100 nM.
The corresponding values for `CN(Cc1ccccc1)CC1CC1c1c[nH]c2ccc(F)cc12` (centres unmarked) [Example 131] are 1 to 10 nM and 100 to 1000 nM.
The corresponding values for `Fc1cccc(CNCC2CC2c2c[nH]c3ccc(F)cc23)c1` (stereo not drawn) [Example 54, trans-1-[N-(3-Fluorobenzyl)aminomethyl]2-[5-fluoroindol-3-yl]-cyclopropane] are 10 to 100 nM and 100 to 1000 nM.
For `N#Cc1ccc2[nH]cc(C3CC3CN3CCC(Cc4ccccc4)CC3)c2c1` (stereo not drawn) [Example 34, trans-1-(4-Benzyl-piperidin-1-ylmethyl)-2-[5-cyanoindol-3-yl]-cyclopropane], the inhibition constant (Ki) in experiment [1] (read-out: SERT Ki) and in experiment [2] was 1 to 10 nM in each case.
Turning to `CCCOC(=O)NCCN(C)C[C@@H]1C[C@H]1c1c[nH]c2ccc(C#N)cc12` (relative stereo) [Example 88, trans-2-[5-Cyanoindol-3-yl]-1-[N,N-methyl-2-amino(propylcarbamoyl)ethylaminomethyl]-cyclopropane], the Ki is 1 to 10 nM in experiment [1] (read-out: SERT Ki) and above 1000 nM in experiment [2].
The corresponding values for `COc1cccc(CCNC[C@@H]2C[C@H]2c2c[nH]c3ccc(C#N)cc23)c1` (relative stereo) [Example 42] are 1 to 10 nM and 10 to 100 nM.
Consider `N#Cc1ccc2[nH]cc(C3CC3CNCCCn3ccnc3)c2c1` (stereo not drawn) [Example 24, trans-2-[5-Cyanoindol-3-yl]-1-[N-3-(1-imidazolyl)propylaminomethyl]-cyclopropane], for which the figures for the Ki in experiment [1] (read-out: SERT Ki) and in experiment [2] were 10 to 100 nM and 100 to 1000 nM, respectively.
Regarding `N#Cc1ccc2[nH]cc(C3CC3CN3CCOCC3)c2c1` (centres unmarked) [Example 137], the inhibition constant Ki is 10 to 100 nM in experiment [1] (SERT Ki (nM)) and above 1000 nM in experiment [2].
In the case of `CC([C@@H]1C[C@H]1c1c[nH]c2ccc(C#N)cc12)N(C)C` (single isomer, unassigned) [Example 122B, trans-3-[2-(1-Dimethylamino-ethyl)-cyclopropyl]-1H-indole-5-carbonitrile], the Ki in experiment [1] (SERT Ki (nM)) was 1 to 10 nM; in experiment [2], above 1000 nM.
The corresponding values for `CCN(C)CC1CC1c1c[nH]c2ccc(F)cc12` (stereo not drawn) [Example 184, cis-1-(N-ethyl-N-methylaminomethyl)-2-[5-fluoroindol-3-yl]-cyclopropane] are 10 to 100 nM and above 1000 nM.

The values are drawn from patent publication US6822100B2 (Bristol-Myers Squibb Company, priority 2001, dated 2004).
